What was measured:
Assay type in all cases: functional
ACHN = experiment: Cytotoxicity against Homo sapiens (human) ACHN cells after 48 hr by sulforhodamine B assay; settings: for CC50: read-out: LC50 (the source's name)
786-0 = experiment: Cytotoxicity against Homo sapiens (human) 786-0 cells after 48 hr by sulforhodamine B assay; settings: 786-0, 48 h
SK-OV-3 = experiment: Cytotoxicity against Homo sapiens (human) SKOV3 cells after 48 hr by sulforhodamine B assay; settings: SK-OV-3, 48 h
OVCAR-8 = experiment: Cytotoxicity against Homo sapiens (human) OVCAR8 cells after 48 hr by sulforhodamine B assay; settings: OVCAR-8, 48 h
OVCAR-5 = experiment: Cytotoxicity against Homo sapiens (human) OVCAR5 cells after 48 hr by sulforhodamine B assay; settings: OVCAR-5, 48 h; for CC50: read-out: LC50 (the source's name)
OVCAR-3 = experiment: Cytotoxicity against Homo sapiens (human) OVCAR3 cells after 48 hr by sulforhodamine B assay; settings: OVCAR-3, 48 h
UACC-62 = experiment: Cytotoxicity against Homo sapiens (human) UACC62 cells after 48 hr by sulforhodamine B assay; settings: UACC-62, 48 h
SK-MEL-2 = experiment: Cytotoxicity against Homo sapiens (human) SK-MEL-2 cells after 48 hr by sulforhodamine B assay; settings: SK-MEL-2, 48 h
SNB-75 = experiment: Cytotoxicity against Homo sapiens (human) SNB75 cells after 48 hr by sulforhodamine B assay; settings: SNB-75, 48 h; for CC50: read-out: LC50 (the source's name)
SNB-19 = experiment: Cytotoxicity against Homo sapiens (human) SNB19 cells after 48 hr by sulforhodamine B assay; settings: SNB-19, 48 h
SF-539 = experiment: Cytotoxicity against Homo sapiens (human) SF539 cells after 48 hr by sulforhodamine B assay; settings: SF-539, 48 h
BT-549 = experiment: Cytotoxicity against Homo sapiens (human) BT549 cells after 48 hr by sulforhodamine B assay; settings: BT-549, 48 h
MDA-MB-231 = experiment: Cytotoxicity against Homo sapiens (human) MDA-MB-231 cells after 48 hr by sulforhodamine B assay; settings: MDA-MB-231, 48 h
RXF 393 = experiment: Cytotoxicity against Homo sapiens (human) RXF393 cells after 48 hr by sulforhodamine B assay; settings: RXF 393, 48 h
CAKI-1 = experiment: Cytotoxicity against Homo sapiens (human) Caki1 cells after 48 hr by sulforhodamine B assay; settings: CAKI-1, 48 h; for CC50: read-out: LC50 (the source's name)
SF-295 = experiment: Cytotoxicity against Homo sapiens (human) SF295 cells after 48 hr by sulforhodamine B assay; settings: SF-295, 48 h; for CC50: read-out: LC50 (the source's name)
SF-268 [1] = experiment: Cytotoxicity against Homo sapiens (human) SF268 cells after 48 hr by sulforhodamine B assay; settings: SF-268, 48 h; for CC50: read-out: LC50 (the source's name)
SW-620 = experiment: Cytotoxicity against Homo sapiens (human) SW620 cells after 48 hr by sulforhodamine B assay; settings: SW-620, 48 h; for CC50: read-out: LC50 (the source's name)
HCT-116 = experiment: Cytotoxicity against Homo sapiens (human) HCT116 cells after 48 hr by sulforhodamine B assay; settings: HCT-116, 48 h; for CC50: read-out: LC50 (the source's name)
COLO 205 = experiment: Cytotoxicity against Homo sapiens (human) COLO205 cells after 48 hr by sulforhodamine B assay; settings: COLO 205, 48 h; for CC50: read-out: LC50 (the source's name)
NCI-H522 = experiment: Cytotoxicity against Homo sapiens (human) NCI-H522 cells after 48 hr by sulforhodamine B assay; settings: NCI-H522, 48 h; for CC50: read-out: LC50 (the source's name)
NCI-H322M = experiment: Cytotoxicity against Homo sapiens (human) NCI-H322M cells after 48 hr by sulforhodamine B assay; settings: for CC50: read-out: LC50 (the source's name)
HOP-62 = experiment: Cytotoxicity against Homo sapiens (human) HOP62 cells after 48 hr by sulforhodamine B assay; settings: HOP-62, 48 h; for CC50: read-out: LC50 (the source's name)
EKVX = experiment: Cytotoxicity against Homo sapiens (human) EKVX cells after 48 hr by sulforhodamine B assay; settings: for CC50: read-out: LC50 (the source's name)
MOLT-4 = experiment: Cytotoxicity against Homo sapiens (human) MOLT4 cells after 48 hr by sulforhodamine B assay; settings: MOLT-4, 48 h; for CC50: read-out: LC50 (the source's name)
CCRF-CEM = experiment: Cytotoxicity against Homo sapiens (human) CCRF-CEM cells after 48 hr by sulforhodamine B assay; settings: for CC50: read-out: LC50 (the source's name)
SF-268 [2] = experiment: Cytotoxicity against Homo sapiens (human) SF268 cells assessed as cell growth at 10^-4 M after 48 hr by […] assay; settings: SF-268, 48 h, read-out: Activity

SMILES: Nc1nc(Cl)c2ncn(Cc3ccc(CCl)cc3)c2n1
- TGI (ACHN): 25.1 µM
- CC50 (ACHN): 64.6 µM
- LC50 (786-0): > 100 µM
- TGI (786-0): 93.3 µM
- LC50 (SK-OV-3): 64.5 µM
- TGI (SK-OV-3): 30.9 µM
- LC50 (concentration killing 50% of cells) (OVCAR-8): > 100 µM
- TGI (OVCAR-8): 33.1 µM
- TGI (OVCAR-5): 14.8 µM
- CC50 (OVCAR-5): > 100 µM
- LC50 (OVCAR-3): 22.9 µM
- TGI (OVCAR-3): 5.5 µM
- LC50 (concentration causing 50% net cell kill) (UACC-62): 53.7 µM
- TGI (UACC-62): 8.13 µM
- LC50 (concentration killing 50% of cells) (SK-MEL-2): 74.1 µM
- TGI (SK-MEL-2): 28.8 µM
- TGI (SNB-75): 91.2 µM
- CC50 (SNB-75): > 100 µM
- LC50 (SNB-19): 46.8 µM
- TGI (SNB-19): 19.9 µM
- LC50 (concentration killing 50% of cells) (SF-539): 46.8 µM
- TGI (SF-539): 10 µM
- LC50 (50% lethal concentration) (BT-549): 69.2 µM
- TGI (BT-549): 24.6 µM
- LC50 (MDA-MB-231): 91.2 µM
- TGI (MDA-MB-231): 34.7 µM
- TGI (RXF 393): 7.24 µM
- CC50 (RXF 393; read-out: LC50 (the source's name)): 35.5 µM
- TGI (CAKI-1): 9.77 µM
- CC50 (CAKI-1): 34.7 µM
- TGI (SF-295): 27.5 µM
- CC50 (SF-295): 72.4 µM
- TGI (SF-268 [1]): 8.32 µM
- CC50 (SF-268 [1]): 38.9 µM
- TGI (SW-620): 13.8 µM
- CC50 (SW-620): 87.1 µM
- TGI (HCT-116): 15 µM
- CC50 (HCT-116): 56.2 µM
- TGI (COLO 205): 13.5 µM
- CC50 (COLO 205): 42.7 µM
- GI50 (NCI-H522): 10.9 µM
- TGI (NCI-H522): 25.7 µM
- CC50 (NCI-H522): 63.1 µM
- TGI (NCI-H322M): 42.7 µM
- CC50 (NCI-H322M): 87.1 µM
- TGI (HOP-62): 27.5 µM
- CC50 (HOP-62): 91.2 µM
- TGI (EKVX): 7.24 µM
- CC50 (EKVX): 28.2 µM
- TGI (MOLT-4): > 100 µM
- CC50 (MOLT-4): > 100 µM
- TGI (CCRF-CEM): > 100 µM
- CC50 (CCRF-CEM): > 100 µM
- growth at 100 µM (SF-268 [2]): 90%

SMILES: ClCc1ccc(Cn2cnc3nc(Cl)nc(Cl)c32)cc1
- GI50 (ACHN): 1.9 µM
- TGI (ACHN): 3.31 µM
- CC50 (ACHN): 5.75 µM
- GI50 (786-0): 1.9 µM
- LC50 (786-0): 7.41 µM
- TGI (786-0): 3.71 µM
- GI50 (SK-OV-3): 2.34 µM
- LC50 (SK-OV-3): 18.2 µM
- TGI (SK-OV-3): 5.01 µM
- GI50 (OVCAR-8): 1.99 µM
- LC50 (concentration killing 50% of cells) (OVCAR-8): 8.31 µM
- TGI (OVCAR-8): 4.07 µM
- GI50 (OVCAR-5): 2.18 µM
- TGI (OVCAR-5): 4.26 µM
- CC50 (OVCAR-5): 8.31 µM
- GI50 (OVCAR-3): 0.3 µM
- LC50 (OVCAR-3): 2.51 µM
- TGI (OVCAR-3): 0.72 µM
- GI50 (UACC-62): 1.65 µM
- LC50 (concentration causing 50% net cell kill) (UACC-62): 6.02 µM
- TGI (UACC-62): 3.16 µM
- GI50 (SK-MEL-2): 1.12 µM
- LC50 (concentration killing 50% of cells) (SK-MEL-2): 6.45 µM
- TGI (SK-MEL-2): 2.69 µM
- GI50 (SNB-75): 2.08 µM
- TGI (SNB-75): 3.98 µM
- CC50 (SNB-75): 7.41 µM
- GI50 (SNB-19): 29.5 µM
- LC50 (SNB-19): > 100 µM
- TGI (SNB-19): > 100 µM
- GI50 (SF-539): 1.86 µM
- LC50 (concentration killing 50% of cells) (SF-539): 5.88 µM
- TGI (SF-539): 3.31 µM
- GI50 (BT-549): 1.86 µM
- LC50 (50% lethal concentration) (BT-549): 6.45 µM
- TGI (BT-549): 3.46 µM
- GI50 (MDA-MB-231): 1.62 µM
- LC50 (MDA-MB-231): 6.02 µM
- TGI (MDA-MB-231): 3.09 µM
- GI50 (RXF 393): 1.65 µM
- TGI (RXF 393): 3.98 µM
- GI50 (CAKI-1): 1.44 µM
- TGI (CAKI-1): 2.75 µM
- CC50 (CAKI-1): 5.37 µM
- GI50 (SF-295): 1.81 µM
- TGI (SF-295): 3.31 µM
- CC50 (SF-295): 5.88 µM
- GI50 (SF-268 [1]): 1.99 µM
- TGI (SF-268 [1]): 3.98 µM
- CC50 (SF-268 [1]): 7.94 µM
- GI50 (SW-620): 13.2 µM
- TGI (SW-620): 28.8 µM
- CC50 (SW-620): 64.6 µM
- GI50 (HCT-116): 0.12 µM
- TGI (HCT-116): 1.24 µM
- CC50 (HCT-116): > 100 µM
- GI50 (COLO 205): 17.4 µM
- TGI (COLO 205): > 100 µM
- CC50 (COLO 205): > 100 µM
- GI50 (NCI-H522): 1.77 µM
- TGI (NCI-H522): 4.57 µM
- CC50 (NCI-H522): 38 µM
- GI50 (NCI-H322M): 0.67 µM
- TGI (NCI-H322M): 1.9 µM
- CC50 (NCI-H322M): 4.46 µM
- GI50 (HOP-62): 1.9 µM
- TGI (HOP-62): 3.89 µM
- CC50 (HOP-62): 7.94 µM
- GI50 (EKVX): 1.9 µM
- TGI (EKVX): 3.46 µM
- CC50 (EKVX): 6.3 µM
- GI50 (MOLT-4): 1.38 µM
- TGI (MOLT-4): 5.49 µM
- CC50 (MOLT-4): > 100 µM
- GI50 (CCRF-CEM): 14.8 µM
- TGI (CCRF-CEM): 31.6 µM
- CC50 (CCRF-CEM): 66.1 µM
- growth at 100 µM (SF-268 [2]): 0%

Source: ChEMBL document CHEMBL3044672, “N9- and N7-(Chloromethyl Phenymethyl)Chloropurine Derivatives from , '-Dichloroxylenes: Synthesis and Anticancer Activity” (2005)
